Test results taken from PMC10665234, “Nutritional Supplementation and Enhanced Antioxidant Function by Dietary Intake of Selenoneine and Other Selenium Compounds in Red Seabream Pagrus major” (Marine Biotechnology (New York, N.y.), 2023).

Key:
[1] = Total selenium concentrations in the tissues of red seabream after feeding selenium-supplemented dry pellet (fluorometric assay with 2,3-diamino-naphthalene); format: in vivo, red seabream Pagrus major
Procedure: (§1) Red seabream fry (average body weight of 5.4 g) was obtained from private seed and seedling production company (Oita, Japan) and cultured for seven months up to average body weight of 250 g. Chemical composition of control diet was containing crude protein 50%; […]; Ca 2.3%; ash 16.0%; and phosphorus 1.5%. Each selenium-added diet was fed twice a day for 4 weeks in an amount of 1% of the average body weight. Body weight of fish in each tank was measured when fish were sampled and amount of diet was calculated according to the body weight of every sampling day. The added selenium concentrations in the diets were set in 0 ppm, 1 ppm, and 2 ppm selenium according to the previous study (Tohfuku et al. [2021]). After that, they were fed a commercial diet twice a day for 1 week. The test groups were the control group, the sodium selenite group (1 mg Se/kg feeding group and 2 mg Se/kg feeding group), the selenomethionine group (1 mg Se/kg feeding group and 2 mg Se/kg feeding group), and the selenoneine group (1 mg Se/kg feeding group and 2 mg Se/kg feeding group) were set. The number of fish raised was 15 from the start of rearing in each tank until the 2nd week, 10 from the 3rd to 4th week, and 5 in the 5th week. […] We reared red seabream by feeding of 1% dry pellet containing of sodium selenite, selenomethionine, or selenoneine of body weight twice a day for 4 weeks. After that, we replaced to 1% of commercial dry pellet of body weight twice a day for 1 week from the selenium supplementation. Average water temperature was 20.9 ℃ (19.0–23.9 ℃) and average dissolved oxygen was 7.41 mg/L. The body weight change of red seabream for 5 weeks is shown in Table S2.
(§2) Red seabream was anesthetized by adding 2 mL of anesthetic (1/100 volume of 2-methylquinoline dissolved in ethanol) to 1 L of seawater. A small amount of an anticoagulant (heparin sodium dissolved in physiological saline; 800 units/mL) was placed in a syringe in advance, and blood was collected from the caudal peduncle of each fish. The collected blood was centrifuged at 5000 rpm for 5 min (4 °C), divided into a plasma fraction and a precipitated fraction, and stored at − 50 °C. The precipitated fraction was used for analysis as the blood cell fraction.
Total selenium concentration was determined by fluorometric assay with 2,3-diamino-naphthalene, after digestion in 1.5 mL of nitric acid and perchloric acid (1:2 in volume) at 200–220 ℃ (Watkinson [1966]; Yamashita and Yamashita [2010]).

[2] = Selenoneine concentration in white muscle and blood cell by HPLC-ICP-MS (82Se); format: in vivo, red seabream Pagrus major; settings: for Selenoneine concentration, blood cell / Selenoneine concentration, white muscle: fish cultured for 4 weeks
Procedure: as §1, §2
Selenoneine was separated by chromatography using a Shodex GF-310 column (4.5 mm × 150 mm; Showa Denko, Tokyo, Japan) equilibrated with 100 mM ammonium formate buffer containing 0.1% (w/v) Igepal CA-630 (MP Biomedicals, CA, USA). The injection volume was at 10 μL. The mobile phase delivered at 0.5 mL/min isocratically. ^82Se was detected with high performance liquid chromatography inductively coupled plasma mass spectrometry (HPLC-ICP-MS; Agilent 1100 Series and Agilent 7500 Series, Agilent Technology) (Yamashita and Yamashita [2010]). During separation, selenoneine was eluted at a retention time of 200 s, and the selenium concentration was determined using selenoneine as a standard.

[3] = Uptake factor of selenoneine from feed (ratio of concentration in muscle or blood cells to feed); format: in vivo, red seabream Pagrus major; settings: artificial feed containing selenoneine at 0.1–2 mg Se/kg
Procedure: Uptake factor is defined as a ratio of selenoneine concentration in muscle or blood cells to those in feed, and is the same as the biomagnification factor (Yamada et al. [1994]). Thus, uptake factor is an indicator showing the degree of accumulation of selenoneine in muscle or blood cells by dietary intake of feed. The uptake factor was calculated by the following equation on the equilibrium period of the dietary exposure experiments:
Uptake factor = ((Cen − Cb) / CF) × 10^–3where Cen is selenoneine concentration in muscle or blood cells of fish fed with selenoneine-contained feed (ng/kg), Cb is selenoneine concentration in muscle or blood cells of the control fish (ng/kg wet), and CF is the selenoneine concentration in the contained feed (μg/kg).

[4] = tested on: red seabream; test: Oxidation-reduction potential (ORP) in white muscle; format: in vivo, red seabream Pagrus major; settings: 2 weeks; 1 or 2 ppm in diet
Procedure: ORP was measured with ORP electrode (9300, Horiba, Kyoto, […]). The electrode was pierced into muscle and pressed gently until the potential stabilized for 60 s.

[5] = tested on: yellowtail; design: method as in Our unpublished research; settings: ref Our unpublished research; cited from earlier work
[6] = 5 weeks (4 weeks supplementation, then 1 week commercial diet), diet 1 mg Se/kg added
[7] = 5 weeks (4 weeks supplementation, then 1 week commercial diet), diet 2 mg Se/kg added

C[N+](C)(C)[C@@H](Cc1cnc([Se-])[nH]1)C(=O)O [Selenoneine, 2-selenyl-Nα, Nα, Nα-trimethyl-L-histidine]
Total selenium content, blood cell ([1]; 2 weeks, diet 1 mg Se/kg added): 3.98 ± 1.00 mg Se/kg | Total selenium content, blood cell ([1]; 2 weeks, diet 2 mg Se/kg added): 9.28 ± 1.67 mg Se/kg | Total selenium content, blood cell ([1]; 4 weeks, diet 1 mg Se/kg added): 5.93 ± 1.00 mg Se/kg | Total selenium content, blood cell ([1]; 4 weeks, diet 2 mg Se/kg added): 9.94 ± 2.05 mg Se/kg | Total selenium content, blood cell [1, 6]: 4.70 ± 0.53 mg Se/kg | Total selenium content, blood cell [1, 7]: 9.10 ± 1.48 mg Se/kg | Total selenium content, brain ([1]; 2 weeks, diet 1 mg Se/kg added): 0.48 ± 0.02 mg Se/kg | Total selenium content, brain ([1]; 2 weeks, diet 2 mg Se/kg added): 0.50 ± 0.04 mg Se/kg | Total selenium content, brain ([1]; 4 weeks, diet 1 mg Se/kg added): 0.55 ± 0.06 mg Se/kg | Total selenium content, brain ([1]; 4 weeks, diet 2 mg Se/kg added): 0.56 ± 0.05 mg Se/kg | Total selenium content, brain [1, 6]: 0.48 ± 0.09 mg Se/kg | Total selenium content, brain [1, 7]: 0.47 ± 0.04 mg Se/kg | Tissues in which total selenium was accumulated compared with the control group ([1]; diet 1 mg Se/kg): white muscle, kidney, spleen, hepatopancreas, brain, and blood cell | Tissues in which total selenium was accumulated compared with the control group ([1]; diet 2 mg Se/kg): white muscle, heart, kidney, spleen, hepatopancreas, brain, and blood cell | Total selenium content, heart ([1]; 2 weeks, diet 1 mg Se/kg added): 1.11 ± 0.11 mg Se/kg | Total selenium content, heart ([1]; 2 weeks, diet 2 mg Se/kg added): 1.32 ± 0.18 mg Se/kg | Total selenium content, heart ([1]; 4 weeks, diet 1 mg Se/kg added): 1.16 ± 0.11 mg Se/kg | Total selenium content, heart ([1]; 4 weeks, diet 2 mg Se/kg added): 1.19 ± 0.09 mg Se/kg | Total selenium content, heart [1, 6]: 1.09 ± 0.15 mg Se/kg | Total selenium content, heart [1, 7]: 1.28 ± 0.29 mg Se/kg | Total selenium content, hepatopancreas ([1]; 2 weeks, diet 1 mg Se/kg added): 1.27 ± 0.18 mg Se/kg | Total selenium content, hepatopancreas ([1]; 2 weeks, diet 2 mg Se/kg added): 1.51 ± 0.26 mg Se/kg | Total selenium content, hepatopancreas ([1]; 4 weeks, diet 1 mg Se/kg added): 1.22 ± 0.14 mg Se/kg | Total selenium content, hepatopancreas ([1]; 4 weeks, diet 2 mg Se/kg added): 1.35 ± 0.18 mg Se/kg | Total selenium content, hepatopancreas [1, 6]: 1.34 ± 0.26 mg Se/kg | Total selenium content, hepatopancreas [1, 7]: 1.40 ± 0.25 mg Se/kg | Total selenium content, kidney ([1]; 2 weeks, diet 1 mg Se/kg added): 3.22 ± 0.18 mg Se/kg | Total selenium content, kidney ([1]; 2 weeks, diet 2 mg Se/kg added): 3.46 ± 0.43 mg Se/kg | Total selenium content, kidney ([1]; 4 weeks, diet 1 mg Se/kg added): 3.17 ± 0.40 mg Se/kg | Total selenium content, kidney ([1]; 4 weeks, diet 2 mg Se/kg added): 4.03 ± 0.72 mg Se/kg | Total selenium content, kidney [1, 6]: 2.96 ± 0.32 mg Se/kg | Total selenium content, kidney [1, 7]: 3.51 ± 0.49 mg Se/kg | Total selenium content, spleen ([1]; 2 weeks, diet 1 mg Se/kg added): 3.45 ± 0.56 mg Se/kg | Total selenium content, spleen ([1]; 2 weeks, diet 2 mg Se/kg added): 4.69 ± 0.79 mg Se/kg | Total selenium content, spleen ([1]; 4 weeks, diet 1 mg Se/kg added): 3.23 ± 0.37 mg Se/kg | Total selenium content, spleen ([1]; 4 weeks, diet 2 mg Se/kg added): 5.20 ± 1.01 mg Se/kg | Total selenium content, spleen [1, 6]: 3.15 ± 0.83 mg Se/kg | Total selenium content, spleen [1, 7]: 3.16 ± 0.68 mg Se/kg | Total selenium content, white muscle ([1]; 2 weeks, diet 1 mg Se/kg added): 0.39 ± 0.05 mg Se/kg | Total selenium content, white muscle ([1]; 2 weeks, diet 2 mg Se/kg added): 0.35 ± 0.04 mg Se/kg | Total selenium content, white muscle ([1]; 4 weeks, diet 1 mg Se/kg added): 0.40 ± 0.05 mg Se/kg | Total selenium content, white muscle ([1]; 4 weeks, diet 2 mg Se/kg added): 0.43 ± 0.04 mg Se/kg | Total selenium content, white muscle [1, 6]: 0.38 ± 0.04 mg Se/kg | Total selenium content, white muscle [1, 7]: 0.38 ± 0.03 mg Se/kg | Selenoneine as share of total selenium in blood cell ([2]; blood cell, 4 weeks): more than 63% | Selenoneine concentration, blood cell ([2]; blood cell, diet 1 mg Se/kg added): 4.72 ± 1.06 mg Se/kg | Selenoneine concentration, blood cell ([2]; blood cell, diet 1 mg Se/kg added, listed as selenoneine): 4.72 ± 1.06 mg Se/kg | Selenoneine concentration, blood cell ([2]; blood cell, diet 2 mg Se/kg added): 10.29 ± 3.14 mg Se/kg | Selenoneine concentration, blood cell ([2]; blood cell, diet 2 mg Se/kg added, listed as selenoneine): 10.29 ± 3.14 mg Se/kg | Selenoneine as share of selenium in white muscle ([2]; white muscle, 4 weeks): 4.6–7.0% | Selenoneine concentration, white muscle ([2]; white muscle, diet 1 mg Se/kg added): 0.025 ± 0.003 mg Se/kg | Selenoneine concentration, white muscle ([2]; white muscle, diet 1 mg Se/kg added, listed as selenoneine): 0.025 ± 0.003 mg Se/kg | Selenoneine concentration, white muscle ([2]; white muscle, diet 2 mg Se/kg added): 0.030 ± 0.007 mg Se/kg | Selenoneine concentration, white muscle ([2]; white muscle, diet 2 mg Se/kg added, listed as selenoneine): 0.030 ± 0.007 mg Se/kg | Selenoneine concentration in white muscle ([2]; white muscle, selenoneine 1 mg Se/kg administration group): 25.4 ± 3.2 µg Se/kg | Selenoneine concentration in white muscle ([2]; white muscle, selenoneine 2 mg Se/kg administration group): 30.0 ± 6.6 µg Se/kg | Ratio of selenium used in selenoneine in white muscle ([2]; white muscle, selenoneine 2 ppm administration group): about 7.0% | Uptake factor of selenoneine in the blood ([3]; blood (blood cells)): 4.0 | Uptake factor of selenoneine in the white muscle ([3]; white muscle): 0.0062 | ORP in white muscle compared to control [4]: reduced ORP | ORP after dietary intake [5]: reduced ORP and approached the ORP of wild fish
